The results in this text go back to patent US10968236B2, “TYK2 inhibitors and uses thereof” (Nimbus Lakshmi, Inc., priority 2015, dated 2021).

One test addresses TYK2 (Homo sapiens (Human), UniProt P29597). As to the kind of experiment: Tyk2 activity inhibition assay (radioactive kinase / Caliper assay). The test is classed as biochemical.
The test system of test [1] is IL-12 induced pSTAT4 (Tyk2-pSTAT4). As to the kind of experiment: IL-12 Induced pSTAT4 in human PBMC. The test is classed as cell-based. Conditions: IL-12 1.7 ng/mL. The procedure:
IL-12 Induced pSTAT4 in human PBMC. Human PBMC are isolated from buffy coat and are stored frozen for assays as needed. Cells for assay are thawed and resuspended in complete media containing serum, then cells are diluted to 1.67 E6 cells/ml so that 120 μl per well is 200,000 cells. 15 μl of compound or DMSO is added to the well at the desired concentrations and incubated at 1 hr at 37 C. 15 μl of stimulus (final concentration of 1.7 ng/mL IL-12) is added for 30 minutes prior to pSTAT4 and total STAT4 analysis using cell lysates prepared and analyzed by MSD reagents as per manufacturer protocol. The final DMSO concentration of compound in the assay is 0.1%.
(§1) The compound numbers correspond to the compound numbers in Table 1. Compounds having an activity designated as “A” provided an EC50≤2 μM; compounds having an activity designated as “B” provided a EC50 of 2-20 μM, and compounds having an activity designated as “C” provided an EC50>20 μM.

The target in a further test is JAK2 (Homo sapiens (Human), UniProt O60674). As to the kind of experiment: JAK2 activity inhibition assay (radioactive kinase / Caliper assay). The test is classed as biochemical.
Test [2] has as its system GM-CSF induced pSTAT5 (JAK2-pSTAT5). Kind of test: GM-CSF Induced pSTAT5 in human PBMC. The test is classed as cell-based. Conditions: GM-CSF 5 ng/mL. On the procedure: GM-CSF Induced pSTAT5 in human PBMC. Cells are prepared for analysis as in the above procedure and 15 μl of GM-CSF (final concentration 5 ng/mL) is added for 20 minutes prior to pSTAT5 and total STAT5 analysis using cell lysates prepared and analyzed by MSD reagents as per manufacturer protocol. The final DMSO concentration of compound in the assay is 0.1%.
as §1

Where only a bound is given, the exact number is not on record here.

JAK2, sequence (O60674 whole entry): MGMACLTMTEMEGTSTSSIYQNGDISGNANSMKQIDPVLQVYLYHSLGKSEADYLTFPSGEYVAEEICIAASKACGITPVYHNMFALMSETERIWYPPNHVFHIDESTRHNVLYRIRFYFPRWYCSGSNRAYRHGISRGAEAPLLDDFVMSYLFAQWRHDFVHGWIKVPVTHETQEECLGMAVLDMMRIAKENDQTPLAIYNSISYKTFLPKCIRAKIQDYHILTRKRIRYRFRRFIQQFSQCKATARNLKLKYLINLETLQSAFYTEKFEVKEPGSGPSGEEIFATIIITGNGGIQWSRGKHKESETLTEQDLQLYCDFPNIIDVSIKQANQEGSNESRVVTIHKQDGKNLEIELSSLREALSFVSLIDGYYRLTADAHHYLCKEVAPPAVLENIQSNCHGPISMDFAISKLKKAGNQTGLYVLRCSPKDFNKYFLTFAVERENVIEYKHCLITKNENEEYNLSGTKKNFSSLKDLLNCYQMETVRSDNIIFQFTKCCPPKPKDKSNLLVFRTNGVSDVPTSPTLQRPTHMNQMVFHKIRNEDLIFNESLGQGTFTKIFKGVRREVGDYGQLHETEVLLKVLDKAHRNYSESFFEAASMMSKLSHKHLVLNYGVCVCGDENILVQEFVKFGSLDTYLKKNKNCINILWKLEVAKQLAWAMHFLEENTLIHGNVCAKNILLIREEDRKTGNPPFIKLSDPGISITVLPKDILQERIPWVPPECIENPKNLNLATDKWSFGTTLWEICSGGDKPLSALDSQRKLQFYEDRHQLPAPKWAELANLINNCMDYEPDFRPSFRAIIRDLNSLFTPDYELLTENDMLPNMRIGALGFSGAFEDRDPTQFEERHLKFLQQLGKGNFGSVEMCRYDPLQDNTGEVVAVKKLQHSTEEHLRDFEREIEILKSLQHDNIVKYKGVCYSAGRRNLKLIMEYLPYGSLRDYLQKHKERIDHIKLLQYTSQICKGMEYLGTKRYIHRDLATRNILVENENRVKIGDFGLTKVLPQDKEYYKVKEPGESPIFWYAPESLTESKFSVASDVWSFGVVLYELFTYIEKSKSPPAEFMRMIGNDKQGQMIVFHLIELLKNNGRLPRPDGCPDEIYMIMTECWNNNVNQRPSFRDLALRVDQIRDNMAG
TYK2, sequence (P29597 whole entry): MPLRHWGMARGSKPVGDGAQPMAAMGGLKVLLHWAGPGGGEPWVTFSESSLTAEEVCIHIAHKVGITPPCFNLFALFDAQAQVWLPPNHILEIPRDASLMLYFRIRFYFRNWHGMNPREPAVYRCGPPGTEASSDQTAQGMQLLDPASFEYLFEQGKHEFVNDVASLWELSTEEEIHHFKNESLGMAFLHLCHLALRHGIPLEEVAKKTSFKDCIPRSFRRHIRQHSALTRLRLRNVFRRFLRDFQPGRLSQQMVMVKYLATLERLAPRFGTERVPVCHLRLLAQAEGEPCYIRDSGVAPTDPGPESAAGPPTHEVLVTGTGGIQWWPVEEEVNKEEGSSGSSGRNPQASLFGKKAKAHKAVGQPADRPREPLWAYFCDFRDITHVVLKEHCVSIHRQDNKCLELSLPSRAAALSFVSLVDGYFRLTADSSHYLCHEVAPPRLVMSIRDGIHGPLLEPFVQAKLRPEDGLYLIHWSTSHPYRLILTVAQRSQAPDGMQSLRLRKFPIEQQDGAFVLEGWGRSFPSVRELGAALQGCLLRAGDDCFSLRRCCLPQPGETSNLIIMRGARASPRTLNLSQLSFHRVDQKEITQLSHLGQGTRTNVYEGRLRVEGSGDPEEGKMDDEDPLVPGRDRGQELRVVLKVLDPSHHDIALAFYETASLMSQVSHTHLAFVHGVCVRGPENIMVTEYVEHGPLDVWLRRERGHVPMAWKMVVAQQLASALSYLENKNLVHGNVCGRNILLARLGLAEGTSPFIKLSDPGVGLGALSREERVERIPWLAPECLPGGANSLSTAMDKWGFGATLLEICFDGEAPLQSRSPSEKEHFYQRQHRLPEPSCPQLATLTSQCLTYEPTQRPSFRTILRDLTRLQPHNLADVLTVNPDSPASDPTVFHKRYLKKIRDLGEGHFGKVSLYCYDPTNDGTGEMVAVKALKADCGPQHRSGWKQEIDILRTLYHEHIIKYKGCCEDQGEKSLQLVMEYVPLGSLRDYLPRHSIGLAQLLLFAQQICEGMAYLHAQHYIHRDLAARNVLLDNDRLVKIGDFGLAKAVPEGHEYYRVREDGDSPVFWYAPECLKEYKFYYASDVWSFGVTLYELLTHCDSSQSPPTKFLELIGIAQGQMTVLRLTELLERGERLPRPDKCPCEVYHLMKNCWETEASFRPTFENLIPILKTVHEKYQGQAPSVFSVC

Broadly, the Ki is a measure of affinity in units of concentration, obtained from inhibition or displacement. By EC50 is commonly meant the concentration that produces a half-maximal response. Lower therefore signals higher potency in that assay. For `O=C1NCc2nc(-c3c(F)cccc3F)cc(Nc3ccc(C(=O)N4CCC5(CCOCC5)CC4)cc3)c21` [Compound I-58, 4-((4-(3-oxa-9-azaspiro[5.5]undecane-9-carbonyl)phenyl)amino)-2-(2,6-difluorophenyl)-6,7-dihydro-5H-pyrrolo[3,4-b]pyridin-5-one], the Ki at TYK2 and on JAK2 was ≤ 10 nM throughout. Besides, the EC50 in test [1] is ≤ 2000 nM; in test [2] it was 2000 to 20000 nM.

Take `O=C1NCc2nc(-c3c(F)cccc3F)cc(Nc3ccc(N4CCC5(CCOC5)CC4)cn3)c21` [Compound I-52, 4-((5-(2-oxa-8-azaspiro[4.5]decan-8-yl)pyridin-2-yl)amino)-2-(2,6-difluorophenyl)-6,7-dihydro-5H-pyrrolo[3,4-b]pyridin-5-one]: the Ki at TYK2 and at JAK2 was ≤ 10 nM in each case. Moreover, the EC50 in test [1] and in test [2] was ≤ 2000 nM each time.

Turning to `N#Cc1cccc(F)c1-c1cc(Nc2ccc(N3CCOC4(CC4)C3)nc2)c2c(n1)CNC2=O` [Compound I-79, 2-(4-((6-(4-oxa-7-azaspiro[2.5]octan-7-yl)pyridin-3-yl)amino)-5-oxo-6,7-dihydro-5H-pyrrolo[3,4-b]pyridin-2-yl)-3-fluorobenzonitrile], the figures for the Ki at TYK2 and on JAK2 were ≤ 10 nM and 10 to 100 nM, respectively. The results for the concentration giving a half-maximal response (EC50) in test [1] and in test [2] were ≤ 2000 nM and 2000 to 20000 nM, respectively.
